Data as given in paper PMC10385664, “Projection of Target Drug Particle Size in Oral Formulations Using the Refined Developability Classification System (rDCS)” (Pharmaceutics, 2023).
Several values for one entry are separate records, joined by “and”; a condition that tells them apart may be missing. Equal values may be shown once.

How the values were obtained:
[1] = Theoretical IDR from the Levich equation with solubility as input; settings: FaSSIF V1
Source text: Dissolution/Transit Balance: Derivation of kdiss based on Intrinsic Dissolution Rate In addition to Equation (S1) (utilizing hdisk and Adisk ra ther than hparticle and Apowder), the Levich equation (Equation (S12)) [11] applies for the dissolution from a rotating disk with a constant surface area under sink conditions and the assumption of convective diffusion without reaction as dissolution mechanism:
where IDR is the intrinsic dissolution rate, D is the diffusion coefficient, ν is the kinematic viscosit y, ω is the rotational velocity and CS is the thermodynamic solubility. The equation can be rewritten to estimate the IDR using the rotational speed of the compressed disk in revolutions per minut e (Equation (S13Error!
For this, a unit conversion factor of 30/π must be applied for the conversion of ω in rad∙s–1 to revolutions per minut e (RPM) in min‐1.
The dissolution rate from the disk surface can be calculated via multiplication of the IDR by the disk surface area Adisk (Equation (S14)):
Equation (S1) (adjusted to the dissolution from a disk surface) and Equation (S14) (Levich equation) were equated to obtain Equation (S15).
Rearrangement of Equation (S15) for hdisk results in an equation for the thickness of the aqueous boundary layer (ABL) of the rotating disk (hdisk) under sink conditions (Equation (S16)): […]

[2] = pKa by Fast UV spectrometric titration (SiriusT3); assay type: physicochemical; settings: water/methanol mixtures; Yasuda–Shedlovsky extrapolation from water/methanol titrations, 25 °C; low absorbance, value to be treated with caution
Source text: A high-throughput spectrometric screening assay (Fast UV method) using the SiriusT3 (Pion Inc., Billerica, MA, USA) was applied. Samples were titrated under varying water/methanol ratios and apparent pKa values were extrapolated using the Yasuda–Shedlovsky extrapolation. The experimental details are provided in Supplementary Materials. Measured pKa values are presented as means (±SD) and were compared to literature values as well as in silico predictions using the software ADMET Predictor version 9 (Simulations Plus Inc., Lancaster, CA, USA) and ACD/Labs Release 2021.1.2 (Advanced Chemistry Development Inc., Toronto, ON, Canada). […]
r0 2 ∙ ρ ∙IDR∙Dose ൌ DF ∙ PefRsi ∙mdissolved (r0 < 30 μm, hparticle = r0) (S39) […]
spectrometric screening assay (Fast UV method) using an automated titrator system with an incorporated UV‐Vis spectrometer (SiriusT3, Pion Inc., Billerica, MA, USA). […] The pKa values were determined from three titrations with different water/methanol ratios and extrapolation of apparent pKa values in the presence of co‐solvents using the Yasuda‐Shedlovsky extrapolation. Measured pKa values are presented as means with standard deviation and were compared to literature va lues and predictions using the software ADMET Predictor

[3] = cited from earlier work
[4] = method not disclosed; cited from earlier work
[5] = Conversion of Caco-2 Papp(A⟹B) to effective human permeability (Simcyp Papp–Peff correlation); settings: for estimated/predicted human Peff: estimated from Caco-2 permeability data; for Estimated human Peff: from Papp(A⟹B) without inhibitor, atenolol and propranolol as calibrators
Experimental: The Caco-2 Papp values were averaged. […] Estimated Peff values were used as input for the rDCS and rtarget calculations. […]
μM) to study transporter‐mediated efflux effects. In those experiments, elacridar was included in both compartments during the equilibration time and assay. The starting concentration (C0) was confirmed by […]
Details of the analytical standard method are presented in Ta ble S8. Measurements were performed in duplicate and reference […]
Papp values were averaged. To […]
permeability was monitored during the experiment using fluorimetric analysis. The pre‐defined lucifer […]
The built‐in literature Papp‐Peff […]
propranolol as calibrator substances was used. Estimated Peff values were used as input for the rDCS and rtarget calculations.
Table S8. Details of the LC‐MS/MS method for quantification of API concentrations in Caco‐2 permeability study […]
Acquity™ HSS T3 (1.8 μm) 2.1 x 30 mm (Waters Ltd, Herts, UK) fitted with Column SecurityGuard™ ULTRA Fully Porous Polar C18 cartridge (Phenomenex, […]
Mobile phase A 10 mM ammonium formate + 0.1 % v/v formic acid in water
Mobile phase B 100% Methanol
Gradient time profile 0.60 5 95

[6] = Powder dissolution method for estimating IDR in FaSSIF V1; assay type: physicochemical; settings: FaSSIF V1, 37 °C, 100 rpm
Experimental: Istradefylline disks could not be prepared because disk compression led to a change in solid state. The IDR of istradefylline was therefore measured (n = 4) according to a published powder dissolution method for estimating rotating disk IDRs. Istradefylline was weighed into an assay vial containing a magnetic crossbar stirrer, in an amount corresponding to approximately twice the amount needed to saturate the medium. The vials were placed in a heating block and 20 mL pre-heated FaSSIF V1 (37.0 ± 0.5 °C) was added to start the dissolution experiments. The medium was stirred at 100 rpm and concentrations were measured with in situ UV-spectroscopy using fiber optic dip probes until a plateau in the dissolution profile was reached. The vials were protected from light with aluminum foil during the entire experiment. […]
The concentration‐time curves for IDR determination were recorded with in situ UV‐spectroscopy using fiber optic dip probes. […] The buffer was stirred at 100 rpm and spectra were recorded approximately 1 minut e after addition of the stock solution. […]
Second derivatives of the UV spectra were used to establish the calibration curves. Multiple wavelength ranges were evaluated, and calibration curves were accepted for further investigation when linear […]

For `Cc1ncc(OC[C@@]2(c3cccc(F)c3)C[C@H]2C(=O)Nc2ccc(F)cn2)c(C)n1` [Lemborexant, lemborexant], the “theoretical IDR (Levich equation with CS as input)” value [1] is given as 2.24 ± 0.01 µg/min/cm^2, the pKa [2] is given as 2.18 ± 0.05 and the “solubility at pH 1.0” value [3] is given as 1.6 mg/mL. The “Literature logP” value [4] was 3.70 [33], the “estimated/predicted human Peff” value [5] was 4.2 ×10⁻⁶ cm/s and the “Estimated human Peff” value [5] was 420 ×10⁻⁶ cm/s.

For `CCn1c(=O)c2c(nc(/C=C/c3ccc(OC)c(OC)c3)n2C)n(CC)c1=O` [Istradefylline, istradefylline], the “theoretical IDR (Levich equation with CS as input)” value [1] was 0.346 ± 0.005 µg/min/cm^2, the “estimated/predicted human Peff” value [5] was 4.66 ×10⁻⁶ cm/s and the “Estimated human Peff” value [5] was 466 ×10⁻⁶ cm/s. For the same molecule, the “IDR FaSSIF V1 (powder dissolution method)” value [6] was 0.302 ± 0.010 µg/min/cm^2 and 0.302 ± 0.010 ^3 µg/min/cm^2.

In the case of `C[C@@H](c1ncncc1F)[C@](O)(Cn1cncn1)c1ccc(F)cc1F` [Voriconazole, voriconazole], the “Literature logP” value [4] is listed as 1.80 [32].
